# Source: US8633245B2, “PAI-1 inhibitor” (Institute of Medicinal Molecular Design, Inc., priority 2008, dated 2014)
# Biological target: T1, recombinant human PAI-1 (Homo sapiens, UniProt P05121)
# T1 construct: purchased Molecular Innovations, Inc
# Assay: Test Example 2: human PAI-1 inhibitory activity (tPA fluorogenic substrate, pH 7.4 HEPES buffer)
# Type: biochemical
# Conditions: human PAI-1
# Protocol: 0.1 M HEPES, 0.1 M NaCl. 1 mM EDTA. 0.1% Polyethylene glycol 8,000 (Hampton Research Corporation),
# 2 mM Dimethyldecylphoshine oxide [Apo-10] (Fluka Corporation)
# T1 sequence (P05121 24-402): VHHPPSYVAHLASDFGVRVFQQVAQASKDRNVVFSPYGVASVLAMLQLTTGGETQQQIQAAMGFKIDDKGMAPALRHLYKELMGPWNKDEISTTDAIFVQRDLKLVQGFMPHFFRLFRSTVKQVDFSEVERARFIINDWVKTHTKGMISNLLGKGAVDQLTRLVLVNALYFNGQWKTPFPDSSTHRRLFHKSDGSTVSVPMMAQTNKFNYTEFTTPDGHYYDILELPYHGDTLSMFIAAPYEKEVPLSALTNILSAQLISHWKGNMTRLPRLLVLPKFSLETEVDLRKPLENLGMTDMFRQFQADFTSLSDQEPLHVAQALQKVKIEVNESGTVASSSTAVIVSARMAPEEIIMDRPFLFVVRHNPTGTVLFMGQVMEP
Inhibition Rate of PAI-1 Activity (%) (compound concentration 0.1 μM),Inhibition Rate of PAI-1 Activity (%) (compound concentration 0.3 μM),Inhibition Rate of PAI-1 Activity (%) (compound concentration 1 μM),Inhibition Rate of PAI-1 Activity (%) (compound concentration 3 μM),Inhibition Rate of PAI-1 Activity (%) (compound concentration 10 μM),Inhibition Rate of PAI-1 Activity (%) (compound concentration 25 μM),Structure (SMILES)
14,54,>99,>99,,,CC(C)c1ccc(-c2ccc(/C=C/C(=O)O)c(Oc3ccc(C(C)(C)C)cc3)c2)cc1 [Compound 518]
1,19,>99,>99,,,CC(C)c1ccc(-c2ccc(CCC(=O)O)c(Oc3ccc(C(C)(C)C)cc3)c2)cc1 [Compound 519]
14,72,>99,>99,,,CC(C)c1ccc(-c2ccc(/C=C/C(=O)O)c(Sc3ccc(C(C)(C)C)cc3)c2)cc1 [Compound 520]
25,82,>99,>99,,,CCC(CC)Oc1ccc(-c2ccc(/C=C/C(=O)O)c(Oc3ccc(C(C)(C)C)cc3)c2)cc1 [Compound 521]
33,71,98,98,,,CCC(CC)Oc1ccc(-c2ccc(CCC(=O)O)c(Oc3ccc(C(C)(C)C)cc3)c2)cc1 [Compound 522]
11,15,78,>99,,,CCCCOc1ccc(Oc2cc(-c3ccc(OC(F)(F)F)cc3)ccc2OCC(=O)O)cc1 [Compound 523]
6,36,98,>99,,,CC(C)(C)c1ccc(Oc2cc(-c3ccc(OC(F)(F)F)cc3)ccc2CCCC(=O)O)cc1 [Compound 527]
8,12,51,97,,,O=C(O)/C=C/c1ccc(-c2ccc(OC(F)(F)F)cc2)cc1Sc1ccccc1 [Compound 528]
18,29,94,>99,,,CC(C)(C)c1ccc(Sc2cc(-c3ccc(OC(F)(F)F)cc3)ccc2/C=C\C(=O)O)cc1 [Compound 529]
17,21,93,>99,,,CC(C)(C)c1ccc(Sc2cc(-c3ccc(OC(F)(F)F)cc3)ccc2CC(=O)O)cc1 [Compound 530]
3,38,94,96,,,CC(C)(C)c1ccc(Oc2cc(Nc3ccc(OC(F)(F)F)cc3)ccc2/C=C/C(=O)O)cc1 [Compound 531]
12,59,>99,>99,,,CC(C)(C)c1ccc(Oc2cc(Nc3ccc(OC(F)(F)F)cc3)ccc2CCC(=O)O)cc1 [Compound 532]
25,83,97,97,,,CCCCN(CC(=O)O)c1ccc(-c2ccc(OC(F)(F)F)cc2)cc1Oc1ccc(C(C)(C)C)cc1 [Compound 533]
13,21,84,>99,,,CN(CC(=O)O)c1ccc(-c2ccc(OC(F)(F)F)cc2)cc1Oc1ccc(C(C)(C)C)cc1 [Compound 534]
1,12,87,>99,,,CC(C)(C)c1ccc(Oc2cc(Nc3ccc(OC(F)(F)F)cc3)ccc2OCC(=O)O)cc1 [Compound 536]
0,26,92,97,,,CC(C)(C)c1ccc(Oc2ccc(Oc3ccc(OC(F)(F)F)cc3)cc2OCC(=O)O)cc1 [Compound 537]
0,12,87,98,,,CC(C)(C)c1ccc(Oc2cc(Oc3ccc(OC(F)(F)F)cc3)ccc2OCC(=O)O)cc1 [Compound 538]
0,1,73,94,,,O=C(O)/C=C/c1cc(-c2ccc(OC(F)(F)F)cc2)ccc1OCCCCCOc1ccc(-c2ccc(OC(F)(F)F)cc2)cc1/C=C/C(=O)O [Compound 543]
0,3,56,92,,,O=C(O)CCc1cc(-c2ccc(OC(F)(F)F)cc2)ccc1OCCCCCOc1ccc(-c2ccc(OC(F)(F)F)cc2)cc1CCC(=O)O [Compound 544]
4,17,97,>99,,,CC(C)(C)c1ccc(Sc2cc(-c3ccc(OC(F)(F)F)cc3)ccc2C(=O)O)cc1 [Compound 547]
0,16,95,>99,,,CC(C)(C)c1ccc(Sc2cc(-c3ccc(OC(F)(F)F)cc3)ccc2C(=O)C(=O)O)cc1 [Compound 548]
23,22,84,>99,,,CC(C)(C)c1ccc(C(=O)c2cc(-c3ccc(OC(F)(F)F)cc3)ccc2OCC(=O)O)cc1 [Compound 549]
0,2,81,>99,,,CC(C)(C)c1ccc(Cc2cc(-c3ccc(OC(F)(F)F)cc3)ccc2OCC(=O)O)cc1 [Compound 550]
0,4,92,>99,,,CC(C)(C)c1ccc(CCc2cc(-c3ccc(OC(F)(F)F)cc3)ccc2OCC(=O)O)cc1 [Compound 551]
,,9,18,78,>99,O=C(O)CC(=O)N(Cc1ccccc1)c1ccc(-c2ccc(OC(F)(F)F)cc2)cc1F [Compound 602]
,,0,20,36,46,CC(C)(C)c1ccc(CN(C(=O)CCCC(=O)O)c2ccc(-c3ccc(OC(F)(F)F)cc3)cc2)cc1 [Compound 604]
,,11,59,95,95,CC(C)(C)c1ccc(CN(C(=O)CC(=O)O)c2ccc(-c3ccc(OC(F)(F)F)cc3)cc2)cc1 [Compound 608]
,,49,94,97,86,CC(C)(C)c1ccc(N(CC(=O)O)c2ccccc2Oc2ccc(OC(F)(F)F)cc2)cc1 [Compound 610]
,,5,13,45,81,O=C(O)C(=O)N(Cc1ccc(-c2ccc(OC(F)(F)F)cc2)cc1)c1ccccc1 [Compound 611]
,,7,25,84,>99,CC(C)(C)c1ccc(N(Cc2ccc(-c3ccccc3)cc2)C(=O)C(=O)O)cc1 [Compound 612]
